Laboratory results published in article PMC11784013, “Potassium molybdate blocks APN-dependent coronavirus entry by degrading receptor via PIK3C3-mediated autophagy” (Journal of Virology, 2024).
Entries after “also recorded” stand apart in the source; their conditions may differ.

Assays:
PDCoV = PDCoV infection of PK1 cells (RT-qPCR); format: cell-based; conditions: PM 10 mM, PDCoV 0.1 MOI, 17 h
Method: Fig. S1. […] (A) The PK1 cells, pretreated with PM (10mM) concentrations for 1 h were infected with PDCoV (0.1 MOI) for 1 h and were again treated with PM at 37 °C for 17 h.
The cell samples were collected and examined by RT-qPCR . Results are presented as mean ± SD of data from three independent experiments ***, P≤ 0.001.
(also on this page, place not known: RT-qPCR. + - + + 2 3 4 5 6Viral load(log copies/ul) *** PDCoV PM PDCoV M)
(1 picture or pasted object on this page, not shown here)

PIK3C3 = PIK3C3 expression in ST cells (western blot); format: cell-based, porcine; conditions: PM 10 mM, 16 h; for PIK3C3 level, western blot, relative to WT without PM (=1): PRCV 0.1 MOI
Method: Fig 7 PM degrades APN expression via activating PIK3C3-mediated autophagy. (A) Graphical representation for autophagy and the targets of different autophagy inhibitors. (B) ST cells were treated with PM (10 mM) in the presence and absence of 3-MA (20 mM), SBI0206965 (20 µM), and 3BDO (30 µM) for 16 h, and the APN expression was detected by western blot. (C) ST cells were treated with PM (10 mM) in the presence and absence of 3-MA (20 mM) for 16 h, and the APN, PIK3C3, ATG14, BECN1, P62, and LC3 were measured by western blot. (D) ST cells were transfected with PIK3C3 siRNA-1, PIK3C3 siRNA-2, PIK3C3 siRNA-3, PIK3C3 siRNA-4, and NC siRNA for 24 h, the PIK3C3 expression was detected by western blot. (E) ST cells were transfected with PIK3C3 siRNA-4 or NC siRNA for 24 h and then treated with PM (10 mM) for 16 h. The APN, PIK3C3, ATG14, BECN1, P62, and LC3 were detected by western blot. (F) Sequencing diagram for WT ST cells and PIK3C3 KO ST cells. (G) PIK3C3 was detected by western blot in WT ST cells and PIK3C3 KO ST cells. (H) WT ST cells and PIK3C3 KO ST cells were treated with PM (10 mM) for 16 h and then the APN, PIK3C3, ATG14, BECN1, P62, and LC3 were detected by western blot. (I) WT ST cells and PIK3C3 KO ST cells were transfected with pCMV-Myc and pCMV-Myc-PIK3C3, respectively, for 24 h and treated with PM (10 mM) for 16 h. The APN, PIK3C3, P62, and LC3 were detected by western blot. All western blot results were calculated by Image J. All experiments were performed in triplicate.
Fig. S8. PM inhibits PRCV infection by degrading APN via PIK3C3-mediated autophagy. (A-C) WT ST cells and PIK3C3 KO ST cells were treated with PM (10 mM) and infected with PRCV (0.1 MOI) for 16 h. Then the APN, PIK3C3, ATG14, BECN1, P62, PRCV N and LC3 were detected by western blot (A), and viral titers and PRCV N mRNA level were determined by TCID50 (B) and RT-qPCR (C) . […] The APN, PIK3C3, P62, PRCV N and LC3 were determined by western blot (D). […]

[1] = test system: autophagosomes and autolysosomes; experiment: Autophagic flux (RFP-EGFP-LC3B sensor) and transmission electron microscopy in ST cells; format: cell-based, swine
Method: Fig 6 PM degrades APN by autophagy-lysosome pathway. (A) ST cells were treated with PM (10 mM) and infected with TGEV (0.1 MOI) in the presence and absence of MG132 (20 µM), 3-MA (20 mM), and Z-VAD-FMK (20 µM) for 16 h. The APN expression and TGEV N were detected by western blot. (B) ST cells were treated with PM (10 mM) at 2, 4, 8, and 16 h, autophagy markers P62 and LC3, and APN were measured by western blot. (C) ST cells were transfected with RFP-EGFP-LC3B for 12 h and then treated with PM (10 mM) or H2O for 36 h. The fluorescence of GFP and RFP was detected by confocal microscopy, scale bar: 5 µm. (D) Quantification of autophagosomes (Merge) and autolysosomes (RFP) from C using Image J software. (E) ST cells were treated with PM or H2O for 24 h. The autophagosomes (yellow arrow) and autolysosomes (asterisk) were detected by transmission electron microscope, scale bar: 2 µm. (F) The number of autophagosomes (yellow arrow) and autolysosomes (asterisk) was quantified. All western blot results were calculated by Image J. Results are presented as mean ± SD of data from three independent experiments. ***, P ≤ 0.001.

PRCV = PRCV entry assay in ST cells; format: cell-based, porcine respiratory coronavirus; conditions: PM 10 mM, PRCV 0.1 MOI, 1 or 2 h at 37°C, RT-qPCR and IFA
Method: Fig. S4. […] (A and B) Entry assay. ST cells were infected with 0.1
MOI PRCV for 1 h at 4 °C, and were then treated with PM (10 mΜ) or H2O for 1 h or 2 h at 37 °C. The cells samples were washed using sodium citrate buffer and detected by RT-qPCR (A) and IFA (B), Scale bar: 50 μm /5 μm. Results are presented as mean ± SD of data from three independent experiments ***, (also on this page, place not known: 0.0 0.5 1.0 1.5 Relative genomic RNA level *** *** DAPIPRCV PM H2O 1h 2h 1 2 3 4 5 H2O PM Viral load (log copies/ul) *** *** 1h 2h CollectedPM/H2O) […]

## [K+].[K+].[O]=[Mo](=[O])([O-])[O-] [PM, potassium molybdate]
PDCoV
  PDCoV infection: inhibits PDCoV infection; also recorded: effectively restricted
PIK3C3; Fig. S8A, WT ST cells
  PIK3C3 level, western blot, relative to WT without PM (=1): 2.83
PIK3C3; Fig. S8D, WT ST cells with pCMV-Myc
  PIK3C3 level, western blot, relative to WT without PM (=1): 1.73
PIK3C3; ST cells, western blot
  PIK3C3 expression: activated PIK3C3 expression
[1]; PM 10 mM, 36 h, confocal microscopy
  autophagic flux (RFP-EGFP-LC3B sensor): increased RFP signals (autolysosomes) and merge signals (autophagosomes)
[1]; PM vs H2O, 24 h
  autophagosomes and autolysosomes by transmission electron microscopy: formed more autophagosomes
PRCV
  PRCV entry (internalization): blocks PRCV internalization; also recorded: The same results were also demonstrated for PRCV infection
